According to the COVID Moonshot data (paper PMC11187573), “Identification of SARS-CoV-2 Mpro inhibitors through deep reinforcement learning for de novo drug design and computational chemistry approaches” (RSC Medicinal Chemistry, 2024):

Key:
[1] = target: SARS-CoV-2 Main Protease (SARS-CoV-2) (UniProt P0DTD1)
Experimental: Compounds were seeded into assay-ready plates (Greiner 384 low volume, cat 784900) using an Echo 555 acoustic dispenser, and DMSO was back-filled for a uniform concentration in assay plates (DMSO concentration maximum 1%) Screening assays were performed in duplicate at 20µM and 50µM. […] Dose response assays were performed in 12 point dilutions of 2-fold, typically beginning at 100µM. […] Reagents for Mpro assay were dispensed into the assay plate in 10µl volumes for a final volume of 20µL.
Mpro was pre-incubated for 15 minutes at room temperature with compound before addition of substrate and a further 30 minute incubation. Protease reaction was measured in a BMG Pherastar FS with a 480/520 ex/em filter set. Raw data was mapped and normalized to high (Protease with DMSO) and low (No Protease) controls using Genedata Screener software.

[2] = target: SARS-CoV-2 Main Protease (SARS-CoV-2) (UniProt P0DTD1); remark: listed apart in the source

SMILES	inhibition ([1]; 20.0 µM) [%]	inhibition ([1]; 50.0 µM) [%]	IC50 [2] [µM]	inhibition ([2]; 20.0 µM) [%]	inhibition ([2]; 50.0 µM) [%]	relative solubility at 20 uM	relative solubility at 100 uM
Cc1ccncc1NC(=O)Nc1cccc(C#N)c1	19.4	44.3	49.3	23.8	55.7	1	0.97
C=CC(=O)N(c1ccc(C(C)(C)C)cc1)C(C(=O)NCc1cccnc1)c1cccnc1 (centres undefined)	41.2	59.3	–	18.2	61.3	1	0.96
CN(C)C/C=C/C(=O)Nc1c[nH]c2ccccc12	5.8	22.5	–	0	–	1	1
CCC(NC(=O)NCc1cnccn1)c1ccccc1OCC(=O)N1CCCC1 (centres undefined)	–	7.61	–	0	9.2	1	1
O=C1C(=O)N(Cc2ccc(Br)cc2)c2c(Br)cccc21	1.5	-1.15	0.485	–	100	0.99	0.97
N#Cc1cccc(NC(=O)Nc2c[nH]c3ncccc23)c1	–	47.3	–	0	19.9	1	0.91
COc1ccccc1OCCNC(=O)c1cc(=O)[nH]c2cc(F)ccc12	-6.6	51.7	–	–	9.64	0.88	0.66
C=CC(=O)N1CCN(Cc2cccc3ccccc23)CC1	-4.32	3.35	–	0	–	1	0.99
O=C1CC(Oc2cccc(C(=O)NCc3cncnc3)c2)N1 (centres undefined)	21.6	25.1	–	–	28.1	1	1
CN(CC1COc2ccccc2O1)C(=O)c1cc(=O)[nH]c2cc(F)ccc12 (centres undefined)	-3.67	15.3	–	–	0	0.98	0.99
C=CC(=O)N(c1ccc(C(C)(C)C)cc1)C(C(=O)NCCc1cccc(F)c1)c1cncc(C)c1 (centres undefined)	49	78.2	–	–	0	0.8	0.28
Cc1ccncc1NC(=O)CN(C)S(=O)(=O)c1cccc2cccnc12	43.4	17.3	–	0	-0.449	0.99	1
CC(C)N(C)C(=O)C1CCN(C(=O)CCl)CC1	17.3	38.8	–	-0.0976	–	1	1
Cc1cccc(-c2nnnn2C2CC2C)c1NC(=O)CCc1cccnc1 (centres undefined)	–	-16.5	–	0	13.5	1	1
CC(C)[C@@H](C#N)NS(=O)(=O)c1ccc(CF)cc1 (stereo in doubt)	–	-14	–	1.55	22.1	1	1
Cc1cnn(C)c1NC(=O)Cc1cccc(Cl)c1	3.11	5.06	–	–	23.1	0.99	0.99
Cc1ccncc1NC(=O)Cc1cccc(C#N)c1	33.6	58.3	43.8	20.5	52.7	1	1.01
O=C(Cc1ccc(O)cc1)Nc1cccc2cc[nH]c12	-9.57	-4.9	–	–	0	1	1
O=C(Cn1nnc2ccccc21)NCc1ccc(Oc2cccnc2)c(F)c1	-21.1	-19.3	–	0	–	0.99	0.99
CC(c1cccc(NC(=O)Cc2cnccc2Cl)c1)N1CCOCC1 (centres undefined)	2.12	3.92	–	0	3.87	0.97	0.92

SMILES	inhibition ([1]; 20.0 µM) [%]	inhibition ([1]; 50.0 µM) [%]	IC50 [2] [µM]	inhibition ([2]; 20.0 µM) [%]	inhibition ([2]; 50.0 µM) [%]	relative solubility at 20 uM	relative solubility at 100 uM
CS(=O)(=O)Nc1cccc(C(=O)Nc2cccc(N3CCCC3=O)c2)c1	0.866	5.19	–	0	–	1	0.99
C=CC(=O)N(c1ccc(C(C)(C)C)cc1)C(C(=O)NC(C)(C)C)c1cncc(Br)c1 (centres undefined)	14.6	-13.8	–	0	0	0.99	0.97
CN(Cc1ccc(OCc2cccs2)cc1)C(=O)Cn1nnc2ccccc21	2.49	10.2	–	0	–	0.56	-0.05
Cc1ccc(S(=O)(=O)N2CCN(C(=O)c3cc(=O)[nH]c4ccc(Cl)cc34)CC2)cc1	-0.869	-0.533	–	–	11.5	0.97	0.88
O=C(Nc1nncn1C1CC1)[C@H]1CCOc2ccc(Cl)cc21 (stereo in doubt)	-13.3	-7.61	–	–	-19.4	1.01	1
O=C1/C(=C/c2ccc(O)cc2)c2ccccc2C(=O)N1Cc1ccc2c(c1)OCO2	6.21	-3.72	–	–	20.1	0.62	0.48
O=C(Cn1nnc2ccccc21)N(Cc1ccsc1)c1ccc(-c2ccccc2)cc1	30.4	39.1	–	–	36.1	0.64	0.5
O=C(Cc1cncnc1)Nc1cc(F)cc(OC2CC(=O)N2)c1 (centres undefined)	52.8	87.8	–	–	45.7	0.99	0.99
O=C(Cc1cccc(Cl)c1)Nc1nncs1	-9.94	-3.05	–	–	0	1	0.78
O=C(NC1CCCCC1NC(=O)C1CCCCC1)c1ccncc1 (centres undefined)	-14.4	-20.6	–	0	–	1	1
NC(=O)CCN(C(=O)CCl)C1CCS(=O)(=O)C1 (centres undefined)	–	18.6	–	16.3	34.1	1	1
Cc1ccncc1NC(=O)CCNc1ccc(S(N)(=O)=O)cc1	–	-27.1	–	0	0	1	1
CCC(C)CC(=O)N1CCCC(NC(=O)Cn2c(C)cc(C)nc2=O)CC1 (centres undefined)	-4.95	-19.4	–	–	-29.6	0.98	1
Cc1ccncc1NC(=O)Cc1cccc(F)c1	39.6	65.3	–	–	40.9	1.01	1
CNS(=O)(=O)Cc1ccc2[nH]cc(CCN(C)C)c2c1	4.66	2.38	–	0	–	1	1
O=C(Nc1cccnc1)c1cc(Cl)ccc1O	18.3	22.8	–	0	–	1	0.89
O=C(Cc1ccccc1)Nc1cccc(OC2CC(=O)N2)c1 (centres undefined)	-2.28	-0.808	–	–	0	1	1
C=CC(=O)N(c1ccc(C(C)(C)CC)cc1)C(C(=O)Nc1ccccc1Br)c1cccnc1 (centres undefined)	–	-11.5	–	0	8.03	1	1
O=C(NCCc1cccc2ccccc12)c1cc(=O)[nH]c2ccccc12	-40.9	4.42	–	–	7.36	0.87	0.73
